Experimental data taken from patent publication US20230173064A1, “DETOXIFIED LIPOPOLYSACCHARIDES (LPS), NATURALLY NON-TOXIC LPS, AND USES THEREOF” (priority 2020, published 2023).
Where two headings read alike, the source gives them in different places.

Tests used:
CB17-SCID mice = test: Tolerance of intravenous injection in tumor-bearing CB17-SCID mice; assay type: in vivo, mouse; conditions: 0.5 mg/kg intravenously
Method: (§1) Mice were treated once a week for 3 weeks (at days 20, 27 and 34) with LPS B2 0.0, LPS B2 0.1, LPS B2 1.1 or LPS W1 0.0, used alone or in combination with rituximab (Genentech), an anti-human CD20 mAb.
(§2) Groups of mice treated with GLA (Merck/Immune Design Corp.) administered either intravenously or intraperitoneally at 0.5 mg/kg, alone or in combination with rituximab, were included for comparison.
(§3) LPS B2 0.0, LPS B2 0.1, LPS B2 1.1 or LPS W1 0.0 were administered intravenously at a dose of 0.5 mg/kg. Rituximab was administered intraperitoneally at a dose of 30 mg/kg.

rabbits [1] = test: Rabbit Pyrogen Test (RPT), Ph. Eur. 5.1.10; assay type: in vivo; conditions: intravenous, sum of temperature rises of 3 rabbits not above 1.15° C.
Method: Standardized Rabbit Pyrogen Test (RPT) were conducted according to European Pharmacopeia (Ph. Eur. 5.1.10). Product tested includes the naturally-occurring LPS B2 0.0 and LPS W1 0.0 and modified LPS B2 0.1, LPS B2 1.1 and LPS B2 1.2, as well as a non-GMP equivalent of the GLA from Merck (Avanti Polar Lipids).
Briefly, groups of three rabbits, weighing 2.5 to 3 kg received one intravenous injection of the tested product in 1 mL/kg of body weight.
For each candidate, several dose ranges were tested from 0.1 to 1000 ng/kg. For each animal, the baseline rectal temperature was recorded. After 30 minutes, the rabbits were inoculated in the ear vein. Temperatures were recorded every 6.5 minutes for 3 hours. The rising temperature of the rabbit body temperature is that the highest body temperature measure within the 3 hours, minus the normal body temperature.
Several doses of each candidates were tested to define their MNPD corresponding to the highest dose of a given product that can be administered in rabbits without inducing febrile reaction.
The pyrogenic activity of modified LPS B2 1.2 and LPS B2 1.3 was evaluated in vivo using the rabbit pyrogen test (RPT), as described in section 5.1.10 of the European Pharmacopeia. Both LPS were administered at the same dose of 450 ng/kg. Two experiments were performed for each modified LPS, with 3 rabbits/experiment (A1, A2 and A3).

[2] = system: human B-lymphoma tumor model (RL cells) in CB17-SCID mice; test: Tumor rejection assay, therapeutic setting, human B-lymphoma RL cells engrafted in CB17-SCID mice; assay type: in vivo, mouse; conditions: for growth of established RL tumor cells: once a week for 3 weeks, LPS 0.5 mg/kg i.v., GLA 0.5 mg/kg, rituximab 30 mg/kg i.p., vs non-treated mice
Method: The therapeutic efficacy of native (LPS B2 0.0 and LPS W1 0.0) and modified (LPS B2 0.1 and LPS B2 1.1) LPS, alone or in combination with rituximab, was analyzed in vivo against a human B-lymphoma tumor model (RL cells) using tumor rejection assays with a therapeutic setting in mice.
Cohort of CB17-SCID mice were engrafted subcutaneously in the abdominal right flank with 5×10^6 human B-lymphoma cells (RL cells). When the tumor volume had reached 100 mm^3 (at day 20), mice were randomized (n=6 mice/group), and the first treatment was administered.
as §1, §2, §3
Tumor-bearing mice injected with PBS (control) or rituximab alone were used as controls.
The tumor volume was measured twice a week (length x width) with a caliper. The tumor volume was determined using the formula: […]

[3] = Dynamic Light Scattering (DLS) aggregate size analysis in water and PBS suspensions; assay type: physicochemical; conditions: for average particle size: 0.2 mg/mL, DLS at 25° C., average of triplicate
Method: Determination of aggregates sizes of LPS B2 0.0, LPS B2 0.1, LPS B2 1.1 and of synthetic GLA (PHAD®, from Avanti® Polar Lipids, Inc.) in aqueous and PBS suspensions was determined by Dynamic Light Scattering (DLS) using the Malvern Instruments Zetasizer Nano S90 with a scattering angle Θ=90°, incident laser wavelength λ=633 nm and temperature at 25° C.
Samples for measurements were prepared as follows: 200 μg of dry samples in 4 mL glass vials were suspended in 1 mL of water or PBS. LONZA LAL Reagent water and Gibco PBS pH 7.4 (without CaCl2 or MgCl2) were used. The solvents were added progressively (250 μL plus 250 μL plus 500 μL). Three homogenization cycles were applied after each addition of a solvent, consisting in a 10-second sonication in a Fisher Scientific FB 15050 ultrasonic bath and 5 seconds vigorous vortex agitation.
800 μL of each suspension were transferred to a disposable Eppendorf polystyrene semi-micro cuvette and DLS measurements were performed three times.
LPS SM1 V1 was diluted in PBS pH 7.5 at 50 nmol/mL, and filtered through a 200-nm filter to remove large debris and aggregates. No nucleic acid contaminants and 2-4 μg/mL of protein contaminants were measured in the sample.

human PBMC (CryoBlood) = conditions: literature / vendor values; cited from earlier work
rabbits [4] = conditions: literature values; cited from earlier work
[5] = system: Osa tumor cells in Sprague-Dawley (SD) rats; test: Tumor rejection assay, orthotopic rat model of osteosarcoma (Osa); assay type: in vivo
Method: The therapeutic efficacy of the modified LPS B2 1.3 was analyzed in vivo against an orthotopic rat model of osteosarcoma (Osa) using tumor rejection assays with a therapeutic setting.
Sprague-Dawley (SD) rats were engrafted with Osa tumor cells in a paratibial position (left posterior tibia) after a periosteal abrasion. When tumors reached an average tumor volume of 150 mm^3, rats (n=3 to 8/group) were randomized into LPS B2 1.3, Doxorubicin (Doxo), or PBS (Control) groups.
LPS B2 1.3 was administered intravenously into the tail vein, twice a week for 2 weeks at 0.25 mg/kg.
Doxorubicin was administered intraperitoneally twice a week for 2 weeks at 1 mg/kg.
Tumor growth and survival were monitored twice a week. Tumor volumes V were assessed according to the following formula: […]
with L the longest and C the shortest tumor diameter.

CCCCCCCCCCCCCC(=O)O[C@H](CCCCCCCCCCC)CC(=O)O[C@@H]1[C@@H](NC(=O)C[C@H](CCCCCCCCCCC)OC(=O)CCCCCCCCCCCCC)[C@H](OC[C@H]2O[C@H](O)[C@H](NC(=O)C[C@H](O)CCCCCCCCCCC)[C@@H](OC(=O)C[C@H](O)CCCCCCCCCCC)[C@@H]2O)O[C@H](CO)[C@H]1OP(=O)(O)O [GLA, glucopyranosyl lipid A]
altered aspect and behavior (toxicity) after intravenous administration (CB17-SCID mice): had to be euthanized
MNPD (maximum non-pyrogenic dose) (rabbits [1]): 0.034 µg/kg
complete tumor regression ([2]; GLA 0.5 mg/kg injected intraperitoneally in combination with rituximab): 50%
growth of established RL tumor cells ([2]; single agent): did not show any impairment
average particle size ([3]; in PBS): about 529 nm
DLS profile ([3]; in water): monodisperse
size of nano-particles / aggregates ([3]; in water or PBS): > 500 nm
solubility / dispersibility ([3]; in water or PBS, without dispersing reagents or special treatment): precipitates
appearance of the final 0.2 mg/mL suspensions ([3]; in water or in PBS): slightly opaque but homogeneous
average particle size ([3]; in water): about 544 nm
MAT (pyrogenicity as described in the literature) (human PBMC (CryoBlood)): 15700^2 EEU/μg

CCCCCCCCCCC[C@H](CC(=O)N[C@H]1[C@H](OC[C@H](NC(=O)C[C@@H](CCCCCCCCCCC)OCCCCCCCCCC)C(=O)O)O[C@H](CO)[C@@H](OP(=O)(O)O)[C@@H]1OC(=O)C[C@@H](CCCCCCCCCCC)OCCCCCCCCCC)OCCCCCCCCCC [GSK1795-091]
MNPD (maximum non-pyrogenic dose) (rabbits [4]): 0.0025 µg/kg

COc1cccc2c1C(=O)c1c(O)c3c(c(O)c1C2=O)C[C@@](O)(C(=O)CO)C[C@@H]3O[C@H]1C[C@H](N)[C@H](O)[C@H](C)O1 [doxorubicin]
growth of established Osa tumor cells ([5]; LPS B2 1.3 0.25 mg/kg i.v., doxorubicin 1 mg/kg i.p., twice a week for 2 weeks, vs PBS (and doxorubicin)): No significant difference in tumor growth
animals alive (survival) ([5]; day 31): 40%
complete tumor regressions (complete responses) ([5]; day 31): no tumor regressions

rituximab: an anti-CD20 monoclonal antibody (Genentech)
complete tumor regression ([2]; single agent, D54 post-tumor challenge): 17%
growth of established RL tumor cells ([2]; single agent): significantly impair the growth
